Experimental data as given in PubChem BioAssay (NCI).
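Results reflect a 48-hour exposure of cells in 96-well plates to compound at five concentrations. At the GI50, growth is halved. TGI denotes the concentration required for complete inhibition of growth.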

Experiments:
Test in all cases: growth of human tumour cells (NCI), 48 h
U251 CNS = test system: U251 CNS
NCI-H460 lung = test system: NCI-H460 lung
LOX IMVI melanoma = test system: LOX IMVI melanoma
T-47D breast = test system: T-47D breast
OVCAR-8 ovarian = test system: OVCAR-8 ovarian
HCT-15 colon = test system: HCT-15 colon
CAKI-1 renal = test system: CAKI-1 renal
SF-295 CNS = test system: SF-295 CNS
SNB-19 CNS = test system: SNB-19 CNS
NCI-H522 lung = test system: NCI-H522 lung
MDA-MB-435 = test system: MDA-MB-435
M14 melanoma = test system: M14 melanoma
A549 NSCLC = test system: A549 NSCLC
EKVX NSCLC = test system: EKVX NSCLC
HCT-116 colon = test system: HCT-116 colon
HOP-62 NSCLC = test system: HOP-62 NSCLC
DU-145 prostate = test system: DU-145 prostate
OVCAR-3 ovarian = test system: OVCAR-3 ovarian
SW-620 colon = test system: SW-620 colon
NCI-H23 lung = test system: NCI-H23 lung
HCC-2998 colon = test system: HCC-2998 colon
RXF 393 renal = test system: RXF 393 renal
ACHN renal = test system: ACHN renal
SN12C renal = test system: SN12C renal
OVCAR-4 ovarian = test system: OVCAR-4 ovarian
SK-MEL-2 melanoma = test system: SK-MEL-2 melanoma
SF-268 CNS = test system: SF-268 CNS
UACC-257 melanoma = test system: UACC-257 melanoma
UO-31 renal = test system: UO-31 renal
HL-60(TB) leukemia = test system: HL-60(TB) leukemia
PC-3 prostate = test system: PC-3 prostate
KM12 colon = test system: KM12 colon
NCI/ADR-RES ovarian = test system: NCI/ADR-RES ovarian
MOLT-4 leukemia = test system: MOLT-4 leukemia
MDA-MB-231 breast = test system: MDA-MB-231 breast
HOP-92 NSCLC = test system: HOP-92 NSCLC
SK-OV-3 ovarian = test system: SK-OV-3 ovarian
K-562 leukemia = test system: K-562 leukemia
HT29 colon = test system: HT29 colon
SK-MEL-28 melanoma = test system: SK-MEL-28 melanoma
786-0 renal = test system: 786-0 renal
COLO 205 colon = test system: COLO 205 colon
CCRF-CEM leukemia = test system: CCRF-CEM leukemia
OVCAR-5 ovarian = test system: OVCAR-5 ovarian
SR leukemia = test system: SR leukemia
TK-10 renal = test system: TK-10 renal
UACC-62 melanoma = test system: UACC-62 melanoma
NCI-H226 lung = test system: NCI-H226 lung
BT-549 breast = test system: BT-549 breast
SK-MEL-5 melanoma = test system: SK-MEL-5 melanoma

SMILES: CCC(C)CN=C(N)c1ccc(N2CCN(c3ccc(C(N)=NCC(C)CC)cc3)CC2)cc1 (stereo not given)
- GI50 (U251 CNS): 3.69 µM
- TGI (U251 CNS): 19.4 µM
- GI50 (NCI-H460 lung): 3.34 µM
- TGI (NCI-H460 lung): 19.1 µM
- GI50 (LOX IMVI melanoma): 12.1 µM
- TGI (LOX IMVI melanoma): 41.8 µM
- GI50 (T-47D breast): 18.5 µM
- TGI (T-47D breast): > 100 µM
- GI50 (OVCAR-8 ovarian): 5.58 µM
- TGI (OVCAR-8 ovarian): > 100 µM
- GI50 (HCT-15 colon): 26.5 µM
- TGI (HCT-15 colon): > 100 µM
- GI50 (CAKI-1 renal): 30 µM
- TGI (CAKI-1 renal): 92.3 µM
- GI50 (SF-295 CNS): 2.9 µM
- TGI (SF-295 CNS): 17.4 µM
- GI50 (SNB-19 CNS): 12.9 µM
- TGI (SNB-19 CNS): 69.2 µM
- GI50 (NCI-H522 lung): 6.49 µM
- TGI (NCI-H522 lung): 27.2 µM
- GI50 (MDA-MB-435): 5.48 µM
- TGI (MDA-MB-435): 28.5 µM
- GI50 (M14 melanoma): 8.64 µM
- TGI (M14 melanoma): 43.5 µM
- GI50 (A549 NSCLC): 10.5 µM
- TGI (A549 NSCLC): > 100 µM
- GI50 (EKVX NSCLC): 0.955 µM
- TGI (EKVX NSCLC): 23.3 µM
- GI50 (HCT-116 colon): 8.51 µM
- TGI (HCT-116 colon): 60 µM
- GI50 (HOP-62 NSCLC): 4.51 µM
- TGI (HOP-62 NSCLC): 24.2 µM
- GI50 (DU-145 prostate): 5.72 µM
- TGI (DU-145 prostate): > 100 µM
- GI50 (OVCAR-3 ovarian): 3.45 µM
- TGI (OVCAR-3 ovarian): 35.4 µM
- GI50 (SW-620 colon): 17 µM
- TGI (SW-620 colon): > 100 µM
- GI50 (NCI-H23 lung): 5.2 µM
- TGI (NCI-H23 lung): 36.3 µM
- GI50 (HCC-2998 colon): 11.5 µM
- TGI (HCC-2998 colon): > 100 µM
- GI50 (RXF 393 renal): 15.9 µM
- TGI (RXF 393 renal): 96.7 µM
- GI50 (ACHN renal): 48 µM
- TGI (ACHN renal): > 100 µM
- GI50 (SN12C renal): 2.3 µM
- TGI (SN12C renal): 8.89 µM
- GI50 (OVCAR-4 ovarian): 19.3 µM
- TGI (OVCAR-4 ovarian): > 100 µM
- GI50 (SK-MEL-2 melanoma): 8.67 µM
- TGI (SK-MEL-2 melanoma): 45.3 µM
- GI50 (SF-268 CNS): 3.93 µM
- TGI (SF-268 CNS): 17.4 µM
- GI50 (UACC-257 melanoma): 20.3 µM
- TGI (UACC-257 melanoma): > 100 µM
- GI50 (UO-31 renal): 79.5 µM
- TGI (UO-31 renal): > 100 µM
- GI50 (HL-60(TB) leukemia): 10.9 µM
- TGI (HL-60(TB) leukemia): 39.9 µM
- GI50 (PC-3 prostate): 7.56 µM
- TGI (PC-3 prostate): 69.3 µM
- GI50 (KM12 colon): 7.25 µM
- TGI (KM12 colon): 52 µM
- GI50 (NCI/ADR-RES ovarian): 85.6 µM
- TGI (NCI/ADR-RES ovarian): > 100 µM
- GI50 (MOLT-4 leukemia): 14.2 µM
- TGI (MOLT-4 leukemia): 38.4 µM
- GI50 (MDA-MB-231 breast): 6.19 µM
- TGI (MDA-MB-231 breast): 37.3 µM
- GI50 (HOP-92 NSCLC): 0.29 µM
- TGI (HOP-92 NSCLC): 8.03 µM
- GI50 (SK-OV-3 ovarian): 23.1 µM
- TGI (SK-OV-3 ovarian): 79.8 µM
- GI50 (K-562 leukemia): 2.84 µM
- TGI (K-562 leukemia): 14 µM
- GI50 (HT29 colon): 11 µM
- TGI (HT29 colon): > 100 µM
- GI50 (SK-MEL-28 melanoma): 16.9 µM
- TGI (SK-MEL-28 melanoma): 41.8 µM
- GI50 (786-0 renal): 7.33 µM
- TGI (786-0 renal): 87.3 µM
- GI50 (COLO 205 colon): 23.4 µM
- TGI (COLO 205 colon): > 100 µM
- GI50 (CCRF-CEM leukemia): 6.09 µM
- TGI (CCRF-CEM leukemia): 40.7 µM
- GI50 (OVCAR-5 ovarian): 33 µM
- TGI (OVCAR-5 ovarian): > 100 µM
- GI50 (SR leukemia): 0.443 µM
- TGI (SR leukemia): 3.01 µM
- GI50 (TK-10 renal): 15.1 µM
- TGI (TK-10 renal): > 100 µM
- GI50 (UACC-62 melanoma): 11.4 µM
- TGI (UACC-62 melanoma): 28.1 µM
- GI50 (NCI-H226 lung): 6.54 µM
- TGI (NCI-H226 lung): 31.3 µM
- GI50 (BT-549 breast): 2.91 µM
- TGI (BT-549 breast): 12.5 µM
- GI50 (SK-MEL-5 melanoma): 1.71 µM
- TGI (SK-MEL-5 melanoma): 12.3 µM
